Assay results taken from patent US20070021434A1, “NON-NUCLEOSIDE ANTI-HEPACIVIRUS AGENTS AND USES THEREOF” (Migenix Inc., priority 2005, published 2007).
Read-outs that look alike come from different tables or passages of the source.

What was measured:
HCV RdRp (NS5B) = HCV RdRp (NS5B) (UniProt P26663); assay type: biochemical, hepatitis C virus
[1] = tested on: Huh-7 cells, genotype 1b HCV replicon; assay: Inhibition of HCV replication in cell culture, genotype 1b replicon; assay type: cell-based, hepatitis C virus; settings: for EC50: Huh-7, genotype 1b replicon, intracellular HCV RNA 24 h after 3 daily doses; for Selectivity Index (CC50/EC50): genotype 1b replicon, CC50 by neutral red uptake
Experimental: Test compounds were solubilized at 30 mM in 100% tissue culture grade DMSO (Sigma, Inc.). Aliquots of test compounds sufficient for one daily treatment were made in individual tubes and all material was stored at −20° C. On each day of treatment, daily aliquots of the test compounds were suspended in culture medium at room temperature and immediately added to the cell cultures. Compounds were added to dividing cultures once daily for three days at concentrations ranging from about 30 μM to about 0.0003 μM. Media was changed with each addition of compound. The assays were started when cell cultures were at about 30-50% confluence, and the cells reached confluence during the last day of treatment. The assays included untreated control cultures (six total), and triplicate cultures treated with α-interferon and ribavirin as positive antiviral and toxicity controls.
Intracellular HCV RNA levels and cytotoxicity were assessed in triplicate 24 hours after the last compound dose.

[2] = Hepatitis C virus, Huh-7, 24 h, read-out: EC50

Sequence of HCV RdRp (NS5B) (P26663 whole entry, looked up): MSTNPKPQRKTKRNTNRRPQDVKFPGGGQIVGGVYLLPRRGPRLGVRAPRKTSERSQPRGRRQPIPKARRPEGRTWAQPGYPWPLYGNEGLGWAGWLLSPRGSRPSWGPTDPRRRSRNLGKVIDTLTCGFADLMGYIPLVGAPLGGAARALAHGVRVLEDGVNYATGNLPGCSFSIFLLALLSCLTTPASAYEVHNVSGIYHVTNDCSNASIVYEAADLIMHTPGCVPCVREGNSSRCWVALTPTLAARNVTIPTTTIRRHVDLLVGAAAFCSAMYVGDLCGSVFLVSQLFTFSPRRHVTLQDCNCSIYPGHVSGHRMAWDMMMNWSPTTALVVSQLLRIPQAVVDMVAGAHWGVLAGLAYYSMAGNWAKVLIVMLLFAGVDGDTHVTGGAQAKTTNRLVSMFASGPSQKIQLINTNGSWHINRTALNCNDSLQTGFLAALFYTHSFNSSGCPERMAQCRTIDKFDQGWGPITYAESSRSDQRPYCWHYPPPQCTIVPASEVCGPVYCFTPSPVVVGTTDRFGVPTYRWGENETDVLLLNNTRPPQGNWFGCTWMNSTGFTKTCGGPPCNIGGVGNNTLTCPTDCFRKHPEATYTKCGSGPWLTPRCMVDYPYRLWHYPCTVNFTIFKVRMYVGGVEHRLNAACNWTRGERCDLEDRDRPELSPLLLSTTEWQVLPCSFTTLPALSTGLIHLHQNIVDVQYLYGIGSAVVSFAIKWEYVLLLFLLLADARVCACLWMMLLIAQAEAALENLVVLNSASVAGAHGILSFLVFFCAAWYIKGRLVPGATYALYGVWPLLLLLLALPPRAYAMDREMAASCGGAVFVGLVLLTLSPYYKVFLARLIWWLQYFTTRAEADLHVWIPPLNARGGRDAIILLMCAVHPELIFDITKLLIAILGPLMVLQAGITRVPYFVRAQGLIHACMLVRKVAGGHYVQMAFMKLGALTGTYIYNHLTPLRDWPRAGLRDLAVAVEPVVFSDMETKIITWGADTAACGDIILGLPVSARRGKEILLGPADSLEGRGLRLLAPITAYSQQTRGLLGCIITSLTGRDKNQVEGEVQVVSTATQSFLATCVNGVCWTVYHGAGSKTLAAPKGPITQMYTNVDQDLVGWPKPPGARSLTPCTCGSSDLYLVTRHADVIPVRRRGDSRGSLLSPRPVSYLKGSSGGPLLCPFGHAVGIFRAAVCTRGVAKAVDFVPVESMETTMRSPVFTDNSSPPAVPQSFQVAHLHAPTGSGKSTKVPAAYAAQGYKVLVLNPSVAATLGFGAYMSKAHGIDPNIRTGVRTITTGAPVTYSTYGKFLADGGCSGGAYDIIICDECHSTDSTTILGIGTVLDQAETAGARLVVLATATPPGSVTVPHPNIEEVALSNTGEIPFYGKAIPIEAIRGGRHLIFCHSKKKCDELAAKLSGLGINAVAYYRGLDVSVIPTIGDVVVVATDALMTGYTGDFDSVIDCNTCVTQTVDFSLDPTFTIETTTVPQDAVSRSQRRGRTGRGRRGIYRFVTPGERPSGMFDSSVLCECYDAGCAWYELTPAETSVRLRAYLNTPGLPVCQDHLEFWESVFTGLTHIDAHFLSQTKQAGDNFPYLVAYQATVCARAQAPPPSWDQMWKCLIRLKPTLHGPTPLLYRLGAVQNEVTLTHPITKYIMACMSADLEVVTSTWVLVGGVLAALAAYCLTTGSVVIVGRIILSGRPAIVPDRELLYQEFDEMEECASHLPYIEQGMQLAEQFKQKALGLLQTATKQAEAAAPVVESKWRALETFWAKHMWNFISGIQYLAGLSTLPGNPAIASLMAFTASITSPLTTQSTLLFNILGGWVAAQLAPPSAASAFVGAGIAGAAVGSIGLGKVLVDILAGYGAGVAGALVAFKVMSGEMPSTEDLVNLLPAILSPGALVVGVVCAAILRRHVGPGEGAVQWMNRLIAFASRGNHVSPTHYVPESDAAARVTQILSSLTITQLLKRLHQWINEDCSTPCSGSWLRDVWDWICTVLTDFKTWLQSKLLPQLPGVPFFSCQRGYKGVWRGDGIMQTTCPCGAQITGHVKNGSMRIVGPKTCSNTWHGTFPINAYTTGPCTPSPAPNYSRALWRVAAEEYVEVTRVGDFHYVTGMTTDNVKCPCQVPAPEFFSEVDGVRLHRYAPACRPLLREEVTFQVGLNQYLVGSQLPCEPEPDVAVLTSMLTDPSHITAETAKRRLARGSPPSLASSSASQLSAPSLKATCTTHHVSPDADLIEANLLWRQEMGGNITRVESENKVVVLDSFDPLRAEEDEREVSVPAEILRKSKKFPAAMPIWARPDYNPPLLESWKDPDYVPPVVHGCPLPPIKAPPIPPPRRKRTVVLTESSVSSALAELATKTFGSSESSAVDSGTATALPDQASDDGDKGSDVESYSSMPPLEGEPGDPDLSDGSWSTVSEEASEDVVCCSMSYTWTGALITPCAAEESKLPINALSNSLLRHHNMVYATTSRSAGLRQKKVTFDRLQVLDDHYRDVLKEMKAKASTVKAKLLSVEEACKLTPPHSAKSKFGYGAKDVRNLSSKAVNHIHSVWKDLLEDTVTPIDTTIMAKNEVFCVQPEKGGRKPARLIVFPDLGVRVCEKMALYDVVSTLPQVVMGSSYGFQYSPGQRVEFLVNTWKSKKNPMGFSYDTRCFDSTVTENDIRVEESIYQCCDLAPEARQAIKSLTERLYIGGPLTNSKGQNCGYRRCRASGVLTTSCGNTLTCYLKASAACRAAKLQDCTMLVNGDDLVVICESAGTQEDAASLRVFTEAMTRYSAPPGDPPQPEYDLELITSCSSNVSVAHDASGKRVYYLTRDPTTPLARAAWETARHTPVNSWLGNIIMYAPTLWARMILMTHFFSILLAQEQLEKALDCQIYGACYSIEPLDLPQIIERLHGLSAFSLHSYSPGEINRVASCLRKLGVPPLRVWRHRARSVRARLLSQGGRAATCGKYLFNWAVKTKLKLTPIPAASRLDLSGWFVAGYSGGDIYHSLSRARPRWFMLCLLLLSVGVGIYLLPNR

Structure (SMILES)	IC50 (HCV RdRp (NS5B)) [µM]	EC50 [1, 2] [µM]	Selectivity Index (CC50/EC50) [1]	EC50 ([1]; read-out: EC50) [µM]	EC50 [1] [μM]
NCCCC[C@H](NC(=O)Nc1ccc(-c2ccccc2)cc1)C(=O)Nc1ccc(CN(C(=O)c2ccco2)C2CCCCC2)cc1 [Compound 26, (S)-FURAN-2-CARBOXYLIC ACID {4-[6-AMINO-2-(3-BIPHENYL-4-YL-UREIDO)-HEXANOYLAMINO]-BENZYL}-CYCLOHEXYL-AMIDE]	< 10	> 2	<20	–	–
Cc1cc2cc(NC(=O)[C@H](CCCCN)NC(=O)Nc3ccc(-c4ccccc4)cc3)ccc2[nH]1 [Compound 94, (S)-6-AMINO-2-(3-BIPHENYL-4-YL-UREIDO)-HEXANOIC ACID (2-METHYL-1H-INDOL-5-YL)-AMIDE]	< 10	> 2	<20	–	–
NCCCC[C@H](NC(=O)Nc1ccc(OCc2ccccc2)cc1)C(=O)Nc1ccc(C2CCCCC2)cc1 [Compound 117, (S)-6-AMINO-2-[3-(4-BENZYLOXY-PHENYL)-UREIDO]-HEXANOIC ACID (4-CYCLOHEXYL-PHENYL)-AMIDE]	< 10	> 2	<20	–	–
NCCCC[C@H](NC(=O)Nc1ccc(-c2ccccc2)cc1)C(=O)Nc1ccc(C2CCCCC2)cc1 [Compound 119, (S)-6-AMINO-2-(3-BIPHENYL-4-YL-UREIDO)-HEXANOIC ACID (4-CYCLOHEXYL-PHENYL)-AMIDE]	< 10	> 2	<20	–	–
NCCCCC[C@H](NC(=O)NCc1ccccc1)C(=O)Nc1ccc(C2CCCCC2)cc1 [Compound 120, (S)-7-AMINO-2-(3-BENZYL-UREIDO)-HEPTANOIC ACID (4-CYCLOHEXYL-PHENYL)-AMIDE]	< 10	> 2	<20	–	–
NCCCCC[C@H](NC(=O)Nc1ccc(OCc2ccccc2)cc1)C(=O)Nc1ccc(C2CCCCC2)cc1 [Compound 121, (S)-7-AMINO-2-[3-(4-BENZYLOXY-PHENYL)-UREIDO]-HEPTANOIC ACID (4-CYCLOHEXYL-PHENYL)-AMIDE]	< 10	< 0.5	<20	–	–
Cc1ccc(NC(=O)[C@H](CCCCN)NC(=O)Nc2ccc3c(c2)Cc2ccccc2-3)cc1 [Compound 125, (S)-6-AMINO-2-[3-(9H-FLUOREN-2-YL)-UREIDO]-HEXANOIC ACID P-TOLYLAMIDE]	< 10	–	<20	> 2	–
Cc1ccc(NC(=O)C(CCCCN)NC(=O)Nc2cccc(-c3ccccc3)c2)cc1 [Compound 127, (S)-6-AMINO-2-(3-BIPHENYL-3-YL-UREIDO)-HEXANOIC ACID P-TOLYLAMIDE]	10 to 50	> 2	<20	–	–
NCCCC[C@@H](NC(=O)Nc1ccc2c(c1)Cc1ccccc1-2)C(=O)Nc1ccc(C2CCCCC2)cc1 [Compound 137, (R)-6-AMINO-2-[3-(9H-FLUOREN-2-YL)-UREIDO]-HEXANOIC ACID (4-CYCLOHEXYL-PHENYL)-AMIDE]	< 10	< 0.5	20 to 100	–	–
NCCCC[C@@H](NC(=O)Nc1ccc(-c2ccccc2)cc1)C(=O)Nc1ccc(C2CCCCC2)cc1 [Compound 142, (R)-6-AMINO-2-(3-BIPHENYL-4-YL-UREIDO)-HEXANOIC ACID (4-CYCLOHEXYL-PHENYL)-AMIDE]	< 10	< 0.5	<20	–	–
Cc1ccc(NC(=O)C(Cc2ccc(CN)cc2)NC(=O)Nc2ccc(-c3ccccc3)cc2)cc1 [Compound 145, (S)-3-(4-AMINOMETHYL-PHENYL)-2-(3-BIPHENYL-4-YL-UREIDO)-N-P-TOLYL-PROPIONAMIDE]	< 10	> 2	<20	–	–
Cc1ccc(NC(=O)C(Cc2ccc(CN)cc2)NC(=O)Nc2ccc(OCc3ccccc3)cc2)cc1 [Compound 146, (S)-3-(4-AMINOMETHYL-PHENYL)-2-[3-(4-BENZYLOXY-PHENYL)-UREIDO]-N-P-TOLYL-PROPIONAMIDE]	< 10	< 0.5	20 to 100	–	–
O=C(CC1CNCCN1C(=O)Nc1ccc(OCc2ccccc2)cc1)Nc1ccc(C2CCCCC2)cc1 (centres unmarked) [Compound 163, 2-[(4-CYCLOHEXYL-PHENYLCARBAMOYL)-METHYL]-PIPERAZINE-1-CARBOXYLIC ACID (4-BENZYLOXY-PHENYL)-AMIDE]	10 to 50	< 0.5	<20	–	–
NCCCC[C@@H](NC(=O)Nc1ccc(OCc2ccccc2)cc1)C(=O)Nc1ccc(C2CCCCC2)cc1 [Compound 166, (R)-6-AMINO-2-[3-(4-BENZYLOXY-PHENYL)-UREIDO]-HEXANOIC ACID (4-CYCLOHEXYL-PHENYL)-AMIDE]	< 10	> 2	<20	–	–
Cc1ccc(NC(=O)[C@@H](CCCCN)NC(=O)Nc2ccc3c(c2)Cc2ccccc2-3)cc1 [Compound 173, (R)-6-AMINO-2-[3-(9H-FLUOREN-2-YL)-UREIDO]-HEXANOIC ACID P-TOLYLAMIDE]	< 10	–	<20	–	2 to 0.5
COC(=O)c1ccc(COc2ccc(NC(=O)NC(CCCCN)C(=O)Nc3ccc(C)cc3)cc2)cc1 [Compound 199, (S)-4-{4-13-(5-AMINO-1-P-TOLYLCARBAMOYL-PENTYL)-UREIDO]-PHENOXYMETHYL}-BENZOIC ACID METHYL ESTER]	10 to 50	0.5 to 2	20 to 100	–	–

Structure (SMILES)	IC50 (HCV RdRp (NS5B)) [µM]	EC50 [1, 2] [µM]	Selectivity Index (CC50/EC50) [1]	EC50 ([1]; read-out: EC50) [µM]	EC50 [1] [μM]
Cc1cc2cc(NC(=O)[C@H](CCCCN)NC(=O)Nc3ccc4c(c3)Cc3ccccc3-4)ccc2[nH]1 [Compound 207, (S)-6-AMINO-2-[3-(9H-FLUOREN-2-YL)-UREIDO]-HEXANOIC ACID (2-METHYL-1H-INDOL-5-YL)-AMIDE]	< 10	> 2	<20	–	–
Cc1ccc(NC(=O)C(CCCCN)NC(=O)Nc2ccc(-c3nc4ccc(C)cc4s3)cc2)cc1 [Compound 214, (S)-6-AMINO-2-{3-[4-(6-METHYL-BENZOTHIAZOL-2-YL)-PHENYL]-UREIDO}-HEXANOIC ACID P-TOLYLAMIDE]	< 10	> 2	<20	–	–
CCCCOc1ccc(S(=O)(=O)N[C@@H](CCCCN)C(=O)Nc2ccc(C)cc2)cc1 [Compound 390, (S)-6-AMINO-2-(4-BUTOXY-BENZENESULFONYLAMINO)-HEXANOIC ACID P-TOLYLAMIDE]	> 50	–	–	–	–
Cc1ccc(NC(=O)[C@H](CCCCN)NS(=O)(=O)c2ccc(Cl)cc2)cc1 [Compound 391, (S)-6-AMINO-2-(4-CHLORO-BENZENESULFONYLAMINO)-HEXANOIC ACID P-TOLYLAMIDE]	> 50	–	–	–	–
Cc1ccc(NC(=O)[C@H](CCCCN)NS(=O)(=O)c2ccc(Cl)c(Cl)c2)cc1 [Compound 392, (S)-6-AMINO-2-(3,4-DICHLORO-BENZENESULFONYLAMINO)-HEXANOIC ACID P-TOLYLAMIDIE]	> 50	–	–	–	–
Cc1ccc(NC(=O)[C@H](CCCCN)NS(=O)(=O)c2ccc(Cl)cc2Cl)cc1 [Compound 393, (S)-6-AMINO-2-(2,4-DICHLORO-BENZENESULFONYLAMINO)-HEXANOIC ACID P-TOLYLAMIDE]	> 50	–	–	–	–
Cc1ccc(NC(=O)[C@H](CCCCN)NS(=O)(=O)c2cc(Cl)cc(Cl)c2)cc1 [Compound 394, (S)-6-AMINO-2-(3,5-DICHLORO-BENZENESULFONYLAMINO)-HEXANOIC ACID P-TOLYLAMIDE]	> 50	–	–	–	–
Cc1ccc(NC(=O)[C@H](CCCCN)NS(=O)(=O)c2cc(Cl)sc2Cl)cc1 [Compound 395, (S)-6-AMINO-2-(2,5-DICHLORO-THIOPHENE-3-SULFONYLAMINO)-HEXANOIC ACID P-TOLYLAMIDE]	> 50	–	–	–	–
Cc1ccc(NC(=O)[C@H](CCCCN)NS(=O)(=O)c2ccc(C)cc2)cc1 [Compound 396, (S)-6-AMINO-2-(TOLUENE-4-SULFONYLAMINO)-HEXANOIC ACID P-TOLYLAMIDE]	> 50	–	–	–	–
Cc1ccc(NC(=O)C(CCCCN)NS(=O)(=O)c2ccc(C(F)(F)F)cc2)cc1 [Compound 397, (S)-6-AMINO-2-(4-TRIFLUOROMETHYL-BENZENESULFONYLAMINO)-HEXANOIC ACID P-TOLYLAMIDE]	> 50	–	–	–	–
Cc1ccc(NC(=O)[C@H](CCCCN)NS(=O)(=O)c2cccc3nonc23)cc1 [Compound 398, (S)-6-AMINO-2-(BENZO[1,2,5]OXADIAZOLE-4-SULFONYLAMINO)-HEXANOIC ACID P-TOLYLAMIDE]	> 50	–	–	–	–
Cc1ccc(NC(=O)[C@H](CCCCN)NS(=O)(=O)c2ccsc2)cc1 [Compound 399, (S)-6-AMINO-2-(THIOPHENE-3-SULFONYLAMINO)-HEXANOIC ACID P-TOLYLAMIDE]	> 50	–	–	–	–
Cc1ccc(NC(=O)C(CCN)NC(=O)OCC2c3ccccc3-c3ccccc32)cc1 [Compound 400, (R)-(3-AMINO-1-P-TOLYLCARBAMOYL-PROPYL)-CARBAMIC ACID 9H-FLUOREN-9-YLMETHYL ESTER]	> 50	–	–	–	–
Cc1ccc(NC(=O)C(CN)NC(=O)OCC2c3ccccc3-c3ccccc32)cc1 [Compound 401, (R)-(2-AMINO-1-P-TOLYLCARBAMOYL-ETHYL)-CARBAMIC ACID 9H-FLUOREN-9-YLMETHYL ESTER]	> 50	–	–	–	–
Cc1ccc(NC(=O)C(CCCC(=O)O)NC(=O)OCC2c3ccccc3-c3ccccc32)cc1 [Compound 402, (S)-5-(9H-FLUOREN-9-YLMETHOXYCARBONYLAMINO)-5-P-TOLYLCARBAMOYL-PENTANOIC ACID]	> 50	–	–	–	–
Cc1ccc(NC(=O)C(CCCCN)NC(=O)OCc2ccccc2)cc1 [Compound 403, (S)-(5-AMINO-1-P-TOLYLCARBAMOYL-PENTYL)-CARBAMIC ACID BENZYL ESTER]	> 50	–	–	–	–
